Experiments:
[1] = target: recombinant human Cathepsin K (Homo sapiens (Human), UniProt P43235); assay: Inhibition of human Cathepsin K; assay type: biochemical; settings: substrate Z-Gly-Pro-Arg-AMC 12.5 μM, 60 min, room temperature
Text: Inhibition of Human Cathepsin K
Materials: Microtiterplates (Optiplate-384 F were purchased from PerkinElmer (Prod. No. 6007270). The substrate Z-Gly-Pro-Arg-AMC was from Biomol (Prod.-No. P-142). L-Cysteine (Prod. No. 168149) was from Sigma. Sodium actetate was from Merck (Prod.-No. 6268.0250), EDTA was from Fluka (Prod.-No. 03680). The inhibitor E-64 was purchased from Sigma (Prod.-No. E3132). The recombinant human Cathepsin K proenzyme was purchased from Biomol (Prod. No. SE-367). All other materials were of highest grade commercially available.
The following buffers were used: Activation buffer: 32.5 mM sodium acetate, adjusted to pH 3.5 with HCl; Assay buffer: 150 mM sodium acetate, 4 mM EDTA, 20 mM L-Cysteine, adjusted to pH 5.5 with HCl,
To activate the proenzyme, 5 μl procathepsin K were mixed with 1 ul activation buffer, and incubated at room temperature for 30 min.
5 μL test compound (final concentration 0.1 nM to 100 μM) in aqua bidest (containing 4% DMSO, final DMSO concentration 1%) were mixed with 10 uL of Cathepsin K in assay buffer (final concentration 2 ng/μL) and incubated for 10 min. Then 5 μL of substrate in assay buffer (final concentration 12.5 μM) were added. The plates were then incubated at room temperature for is 60 min. Then, the reaction was stopped by adding 10 μL of E64 in assay buffer (final concentration 1 μM). The fluorescence in the wells was determined using a Molecular Devices SpectraMax M5 Fluorescence Reader (Ex 360 nm, Em 460 nm).
Each assay microtiter plate contains wells with vehicle controls (1% DMSO in bidest) as reference for non-inhibited enzyme activity (100% Ctl; high values) and wells with inhibitor (E64 in bidest+1% DMSO, final concentration 1 μM) as controls for background fluorescence (0% Ctl; low values). The analysis of the data was performed by calculating the percentage of fluorescence in the presence of test compound in comparison to the fluorescence of the vehicle control after subtracting the background fluorescence: (RFU(sample)−RFU(background))*100/(RFU(control)−RFU(background))
Data from these calculations were used to generate IC50 values for inhibition of Cathepsin K, respectively.

[2] = tested on: Neutrophil elastase activity in U937 cells; assay: Neutrophil elastase activity in U937 cytosolic lysate after incubation with test compound; assay type: cell-based; settings: Homo sapiens, U-937; U937 cells incubated 48 hours with compound; NE activity in lysate; read-out: Reduction of NE-activity in U937 cells IC50
Protocol: Determination of Neutrophil Elastase Activity in U937 Cytosolic Lysate Preparation after Incubation with Test Compound Materials: Optiplate 384F were purchased from PerkinElmer (Prod. No. #6007270). 24 well Nunclon cell culture plates (No. 142475) and 96 well plates (No. 267245) were from Nunc. Dimethylsulfoxid (DMSO) was from Sigma (Prod. No. D8418). Nonidet-P40 (NP40) was from USBiological (Prod. No. N3500) Substrate, specific for Neutrophil elastase, was from Bachem (MeOSuc-Ala-Ala-Pro-Val-AMC; Prod. No. I-1270). Human neutrophil elastase was from Calbiochem (Prod. No. 324681) Buffers: Tris-buffer (100 mM Tris; 1M NaCL; pH 7.5) Tris-buffer+HSA 0.1%; Human Serum Albumin from Calbiochem (Cat#. 126658) Serine-protease buffer (20 mM Tris; 100 mM NaCL; pH 7.5)+0.1% HSA Serine protease lysis buffer: 20 mM Tris-HCL; 100 mM NaCl pH 7.5; +0.2% Nonidet-P40; PBS: phosphate buffered saline, without Ca and Mg, from Gibco Cell Culture: U937 from ECACC (Cat. No. 85011440) cultured in suspension at 37° C. and 5% CO2. Cell density: 0.2-1 Mio. Cells/ml. Medium: RPMI1640 GlutaMAX (No. 61870) with 10% FCS from Gibco Cell Seeding and Treatment: Compounds in 100% DMSO were diluted in Medium (—FCS) with 10% DMSO and further diluted according to the experiment planned. 20 μl of the compound solution was transferred in the respective wells of the 24 well plate and diluted with 2 ml cell suspension/well containing 1′10^5 cells/ml (final concentration of DMSO=0.1%). Compound dilution factor=100 Compounds (up to 7 concentrations) were tested in triplicates with 3 wells for the DMSO 0.1% control, incubated for 48 hours without medium change at 37° C., 5% CO2 and 95% relative to humidity. Cell Harvesting and Cell Lysate:
Transfer the cell suspension in 2.2 ml Eppendorf cups. Separate cells from medium by centrifugation (400×g; 5 min; RT); discard the supernatant. Resuspend in 1 ml PBS; centrifugation (400×g; 5 min; RT); wash cells twice with PBS. Add 100 μl Serin lysis buffer (ice cold) to the cell pellet; resuspend the pellet and store on ice for 15 minutes. Remove debris by centrifugation at 15000×g for 10 min at 4° C. Transfer 80-100 μl lysate supernatant in 96 well plate and store immediately at −80° C.
Neutrophil Elastase Activity Assay:
Frozen lysates were thawn at 37° C. for 10 minutes and stored on ice. Protein content was determined with Bradford protein assay. Lysates were diluted to 0.2-0.5 mg/ml protein in serine protease buffer+HSA.
Standard: NE (100 μg/ml stocksolution in Tris-buffer; stored at −80° C.) was diluted in Tris-buffer+HSA to 750 ng/ml, and further serially diluted 1:2 for the standard curve.
Buffer, blank, standard and lysate samples were transferred into 384 well plate
The increase in fluorescence (Ex360 nm/Em 460 nm) is determined over 30 minutes with a Molecular Device Spectramax M5 Fluorescence Reader. Kinetic Reduction (Vmax units/sec); 4 vmax points. The amount of neutrophil elastase (ng/ml) is calculated using the standard curve and the Spectramax software. The result is interpolated to ng/mg lysate protein using excel formula functions. […] IC50 is calculated using Graphpad Prism; nonlinear fitting (log(inhibitor) vs. response—Variable slope). The IC50 value is interpolated as the concentration of test compound which leads to a neutrophil elastase activity reduction of 50% (relative to the DMSO-treated control).

[3] = Metabolic stability with human liver microsomes; assay type: in vitro ADME; settings: pH 7.6; pooled human liver microsomes, 37° C., 1 μM test compound, 1 mg/ml protein, NADPH; read-out: In vitro stability in human liver microsome incubations t1/2
Protocol: Determination of Metabolic Stability with Human Liver Microsomes
The metabolic degradation of the test compound is assayed at 37° C. with pooled human liver microsomes. The final incubation volume of 100 μl per time point contains TRIS buffer pH 7.6 (0.1 M), magnesium chloride (5 mM), microsomal protein (1 mg/ml) and the test compound at a final concentration of 1 μM. Following a short preincubation period at 37° C., the reactions are initiated by addition of beta-nicotinamide adenine dinucleotide phosphate, reduced form (NADPH, 1 mM) and terminated by transfering an aliquot into acetonitrile after different time points. Additionally, the NADPH-independent degradation is monitored in incubations without NADPH, terminated at the last time point. The [%] remaining test compound after NADPH independent incubation is reflected by the parameter c(control) (metabolic stability). The quenched incubations are pelleted by centrifugation (10′000 g, 5 min). An aliquot of the supernatant is assayed by LC-MS/MS for the amount of parent compound.
The half-life (t1/2 INVITRO) is determined by the slope of the semilogarithmic plot of the concentration-time profile. The intrinsic clearance (CL_[…]) is calculated by considering the amount of protein in the incubation: CL_[…][μl/min/mg protein]=(In 2/(half-life[min]*protein content[mg/ml]))*1′000. The half-life (t1/2 INVITRO) values of selected compounds in the metabolic stability assay described above are listed in the following table

[4] = target: recombinant human DPPI (Cathepsin C) (Homo sapiens (Human), UniProt P53634); assay: Inhibition of human DPPI (Cathepsin C); assay type: biochemical; settings: substrate Gly-Arg-AMC 50 μM, 30 min, room temperature
Text: Inhibition of Human DPPI (Cathepsin C)
Materials: Microtiterplates (Optiplate-384 F) were purchased from PerkinElmer (Prod. No. 6007270). The substrate Gly-Arg-AMC was from Biotrend (Prod.-No. 808756 Custom peptide). Bovine serum albumin (BSA; Prod. No. A3059) and Dithiothreitol (DTT; Prod. No D0632) were from Sigma. TagZyme buffer was from Riedel-de-Haen (Prod.-No. 04269), NaCl was from Merck (Prod.-No. 1.06404.1000) and morpholinoethane sulfonic acid (MES), was from Serva (Prod.-No. 29834). The DPP1 inhibitor Gly-Phe-DMK was purchased from MP Biomedicals (Prod.-No. 03DK00625). The recombinant human DPPI was purchased from Prozymex. All other materials were of highest grade commercially available.
The following buffers were used: MES buffer: 25 mM MES, 50 mM NaCl, 5 mM DTT, adjusted to pH 6.0, containing 0.1% BSA; TAGZyme Buffer: 20 mM NaH2PO4, 150 mM NaCl adjusted to pH 6.0 with HCl
The recombinant human DPPI was diluted in TAGZyme buffer to 1 U/ml (38.1 μg/ml, respectively), and then activated by mixing in a 1:2 ratio with a Cysteamine aqueous solution (2 mM) and incubating for 5 min at room temperature.
Five uL test compound (final concentration 0.1 nM to 100 μM) in aqua bidest (containing 4% DMSO, final DMSO concentration 1%) were mixed with 10 μL of DPPI in MES buffer (final concentration 0.0125 ng/μL) and incubated for 10 min. Then, 5 μL of substrate in MES buffer (final concentration 50 μM) were added. The microtiter plates were then incubated at room temperature for 30 min. Then, the reaction was stopped by adding 10 μL of Gly-Phe-DMK in MES-buffer (final concentration 1 μM). The fluorescence in the wells was determined using a Molecular Devices SpectraMax M5 Fluorescence Reader (Ex 360 nm, Em 460 nm) or an Envision Fluorescence Reader (Ex 355 nm, Em 460 nm).
The analysis of the data was performed by calculating the percentage of fluorescence in the presence of test compound in comparison to the fluorescence of the vehicle control after subtracting the background fluorescence using the following formula: (RFU(sample)−RFU(background))*100/(RFU(control)−RFU(background))
Data from these calculations were used to generate IC50 values for inhibition of DPPI, respectively.

Sequence of recombinant human Cathepsin K (P43235 115-329): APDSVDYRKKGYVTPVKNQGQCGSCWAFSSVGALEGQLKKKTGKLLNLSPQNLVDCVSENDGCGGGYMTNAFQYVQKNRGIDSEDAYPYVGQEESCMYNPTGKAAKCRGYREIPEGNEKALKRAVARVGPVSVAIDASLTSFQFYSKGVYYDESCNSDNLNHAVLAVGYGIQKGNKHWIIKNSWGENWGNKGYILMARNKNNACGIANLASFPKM
Sequence of recombinant human DPPI (Cathepsin C) (P53634 231-394): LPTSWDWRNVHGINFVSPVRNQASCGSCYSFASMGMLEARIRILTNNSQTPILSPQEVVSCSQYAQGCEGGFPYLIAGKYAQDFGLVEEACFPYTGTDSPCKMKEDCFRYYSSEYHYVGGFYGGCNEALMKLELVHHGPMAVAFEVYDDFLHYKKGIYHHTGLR
Sequence of recombinant human DPPI (Cathepsin C) (P53634 395-463): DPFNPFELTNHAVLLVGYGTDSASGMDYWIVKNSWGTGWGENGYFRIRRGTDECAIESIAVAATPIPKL
Sequence of recombinant human DPPI (Cathepsin C) (P53634 25-134): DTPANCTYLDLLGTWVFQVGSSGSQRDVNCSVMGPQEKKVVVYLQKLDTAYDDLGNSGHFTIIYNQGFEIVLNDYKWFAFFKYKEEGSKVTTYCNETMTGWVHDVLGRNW

Row | Structure (SMILES) | IC50 [1] [nM] | IC50 [2] [nM] | half-life at 1 μM [3] [h] | IC50 [4] [nM]
1 | CS(=O)(=O)c1cc(-c2ccc(C[C@@H](C#N)NC(=O)[C@H]3NC4CCC3CC4)c(F)c2)ccc1C#N [Example 1, (2S)—N-[(1S)-1-cyano-2-[4-(4-cyano-3-methylsulfonyl-phenyl)-2-fluoro-phenyl]ethyl]-3-azabicyclo[2.2.2]octane-2-carboxamide] | 2700 | 134 | 2 | –
2 | N#C[C@H](Cc1ccc(-c2ccc3c(c2)CC(=O)N3)cc1)NC(=O)[C@H]1NC2CCC1CC2 [Example 14] | – | – | – | 103
3 | CS(=O)(=O)c1ccc(-c2ccc(C[C@@H](C#N)NC(=O)[C@H]3NC4CCC3CC4)cc2)cc1 [Example 15] | – | – | – | 110
4 | N#C[C@H](Cc1ccc(-c2ccc(C(N)=O)cc2)cc1)NC(=O)[C@H]1NC2CCC1CC2 [Example 16] | – | – | – | 118
5 | CS(=O)(=O)Nc1ccc(-c2ccc(C[C@@H](C#N)NC(=O)[C@H]3NC4CCC3CC4)cc2)cc1 [Example 17] | 6700 | – | – | 124
6 | N#C[C@H](Cc1ccc(-c2cccc(C(N)=O)c2)cc1)NC(=O)[C@H]1NC2CCC1CC2 [Example 18] | 9700 | – | – | 131
7 | N#C[C@H](Cc1ccc(-c2ccc3c(c2)CCNC3=O)cc1)NC(=O)[C@H]1NC2CCC1CC2 [Example 20] | – | – | – | 137
8 | COCCN1C(=O)Cc2ccc(-c3ccc(C[C@@H](C#N)NC(=O)[C@H]4NC5CCC4CC5)cc3)cc21 [Example 21] | – | – | – | 160
9 | CCS(=O)(=O)c1ccc(-c2ccc(C[C@@H](C#N)NC(=O)[C@H]3NC4CCC3CC4)cc2)cc1 [Example 22] | – | – | – | 164
10 | N#C[C@H](Cc1ccc(-c2cc(F)c(F)c(F)c2)cc1)NC(=O)[C@H]1NC2CCC1CC2 [Example 23] | – | – | – | 244
11 | N#Cc1cc(-c2ccc(C[C@@H](C#N)NC(=O)[C@H]3NC4CCC3CC4)cc2)ccn1 [Example 24] | – | – | – | 248

Results, then the compound that gave them:

Row | IC50 [1] [nM] | IC50 [2] [nM] | half-life at 1 μM [3] [h] | IC50 [4] [nM] | Structure (SMILES)
12 | – | – | – | 52.2 | CN1C(=O)Cc2ccc(-c3ccc(C[C@@H](C#N)NC(=O)[C@H]4NC5CCC4CC5)cc3)cc21 [Example 6]
13 | 14800 | – | > 2.17 | 73 | N#Cc1ccc(-c2ccc(C[C@@H](C#N)NC(=O)[C@H]3NC4CCC3CC4)cc2)cc1 [Example 9]
14 | 10800 | – | – | 102 | N#C[C@H](Cc1ccc(-c2ccc(S(N)(=O)=O)cc2)cc1)NC(=O)[C@H]1NC2CCC1CC2 [Example 13]
15 | – | – | – | 98 | CN1Cc2ccc(-c3ccc(C[C@@H](C#N)NC(=O)[C@H]4NC5CCC4CC5)c(F)c3)cc2C1 [Example 25]
16 | – | – | – | 27.8 | CS(=O)(=O)c1ccc(-c2ccc(C[C@@H](C#N)NC(=O)C3NC4CCC3CC4)c(F)c2)cc1C#N (stereo partly drawn) [Example 26]
17 | – | – | – | 73.3 | CN1Cc2cc(-c3ccc(C[C@@H](C#N)NC(=O)[C@H]4NC5CCC4CC5)c(F)c3)ccc2S1(=O)=O [Example 27]

— patent publication US8877775B2, “Substituted 2-aza-bicyclo[2.2.2]octane-3-carboxylic acid (benzyl-cyano-methyl)-amides inhibitors of cathepsin C” (Boehringer Ingelheim International GmbH, priority 2013, dated 2014)
